Reference: patent US20110039873A1, “SUBSTITUTED PYRAZOLO[1,5-a] PYRIDINE COMPOUNDS HAVING MULTI-TARGET ACTIVITY” (priority 2009, published 2011)
Where two headings read alike, the source gives them in different places.

Assays:
[1] = target: T1, recombinant full length human JNK3 enzyme (Homo sapiens, UniProt P53779); experiment: JNK 3 inhibition assay (ATP depletion, luciferase); type: biochemical; conditions: for IC50: 10 uM ATP, ATF2 substrate; for JNK-3 inhibition (in words): see Table 2
T1 construct: recombinant full length human JNK2 or JNK3 enzyme; purchased Upstate; host or cells: Sf21 cells
Protocol: In a 96-well plate, recombinant full length human JNK2 or JNK3 enzyme (40 ng) expressed in Sf21 cells (Upstate) was incubated with the substrate ATF2 (3 uM) for 1 hour in the presence of 10 uM ATP. […] The ATP levels were quantified using luciferase with luminescence read on a Victor Light 1420 luminometer. IC50 calculations were plotted using a nonlinear regression curve fit.

[2] = system: phosphorylated c-Jun (serine-73); experiment: Phosphorylated c-JUN (6-OHDA), SH-SY5Y; type: cell-based; conditions: Homo sapiens, 50 uM 6-hydroxydopamine, 1.5 hours, read-out: p-cJun 6-OHDA SH-SY5Y (EC50 in μM)
Protocol: Human SH-SY5Y neuroblastoma cells were cultured in 96-well plates with 2.5×10^4 cells/well and incubated for 48 hours. 6-hydroxydopamine was added at a concentration of 50 uM in the presence or absence of test compounds (0-30 uM) and incubated for 1.5 hours. Supernatant was discarded and cells were fixed with 4% paraformaldehyde (100 ul/well) for 20 minutes. FACE cell based ELISA assay (Active Motif) was performed specific for quantifying phosphorlyated c-Jun (serine-73).

[3] = system: at least one of JNK 3 or JNK 2 and at least one of PDE 10 or PDE 4; experiment: Dual inhibition (phosphodiesterase and JNK); type: biochemical, human; conditions: IC50 JNK 3 or JNK 2 less than about 5.00 μM and PDE 10 or PDE 4 less than about 20.0 or 30.0 μM
Protocol: In a 96-well plate, recombinant full length human JNK2 or JNK3 enzyme (40 ng) expressed in Sf21 cells (Upstate) was incubated with the substrate ATF2 (3 uM) for 1 hour in the presence of 10 uM ATP. The amount of ATP depletion by the JNK enzyme is measured in the presence or absence of test compounds (0-30 uM). The ATP levels were quantified using luciferase with luminescence read on a Victor Light 1420 luminometer. IC50 calculations were plotted using a nonlinear regression curve fit.
(§1) In a 96-well plate, the catalytic domain of phosphodiesterase 4B enzyme (40 mU/well) cloned from human brain (Scottish Biomedical) was combined with 5 uM cAMP substrate (Sigma). Test compounds (0-30 uM) or vehicle (0.5% DMSO) were added to the enzyme/substrate and incubated 1 hour. Using a PDELight® kit (Cambrex), the amount of AMP produced in the reaction from the hydrolysis of cAMP was quantified using PDELight AMP Detection Reagent which converts the AMP directly to ATP. The assay uses luciferase, which catalyses the formation of light from the newly formed ATP and luciferin. The luminescence was read on a Victor Light 1420 luminometer. IC50 calculations were plotted using a nonlinear regression curve fit.
as §1, with “plate, recombinant human” for “plate, the catalytic domain of”, “phosphodiesterase 10A1” for “phosphodiesterase 4B”, “enzyme (10 U/well) expressed in Baculovirus infected Sf9 cells (BPS Biosciences)” for “enzyme (40 mU/well) cloned from human brain (Scottish Biomedical)”, “with 1” for “with 5”

[4] = system: Mouse BV-2 microglial cells; experiment: BV-2 glial cell assay (TNF-α and MCP-1 by Luminex); type: cell-based; conditions: for EC50: Mus musculus, BV-2, LPS and IFN-γ activated, 20 hours; for inhibiting glial cell activation (TNF-α and/or MCP-1): Table 3
Protocol: Mouse BV-2 microglial cells were seeded on 96-well plates at a concentration of 3×10^4 cells/well. Cells were activated with 100 ng/mL LPS and IFN-γ (100 ng/mL) in the presence or absence of test compounds (0-30 uM). Following incubation for 20 hours, cells were spun down and supernatant collected. The supernatant was analyzed via Luminex for the presence of TNF-α and MCP-1.

[5] = target: T2, recombinant human phosphodiesterase 10A1 enzyme (Homo sapiens, UniProt Q9Y233); experiment: PDE10 inhibition assay (PDELight); type: biochemical; conditions: for IC50: 1 uM cAMP, read-out: PDE 10 Inhibition (IC50 in μM); for PDE-10 inhibition (in words): Table 2
T2 construct: purchased BPS Biosciences; host or cells: Baculovirus infected Sf9 cells
Protocol: In a 96-well plate, recombinant human phosphodiesterase 10A1 enzyme (10 U/well) expressed in Baculovirus infected Sf9 cells (BPS Biosciences) was combined with 1 uM cAMP substrate (Sigma). […] Using a PDELight® kit (Cambrex), the amount of AMP produced in the reaction from the hydrolysis of cAMP was quantified using PDELight AMP Detection Reagent which converts the AMP directly to ATP. The assay uses luciferase, which catalyses the formation of light from the newly formed ATP and luciferin. The luminescence was read on a Victor Light 1420 luminometer. IC50 calculations were plotted using a nonlinear regression curve fit.

[6] = system: rat chronic constriction injury (CCI) model of neuropathic pain; experiment: Rat chronic constriction injury (CCI) model of neuropathic pain; type: in vivo; conditions: IP, dose not given; 50% paw withdrawal threshold, von Frey
Protocol: To induce allodynia, male Sprague-Dawley rats underwent chronic constriction injury (CCI) to the sciatic nerve as described by Bennett and Xie, Pain 1988; 33(1):87-107. The plantar surface of the hind paws was stimulated with von Frey filaments (Stoelting) to induce a withdrawal response by blinded personnel. The bending force of fiber required to induce a 50% withdrawal response was calculated following CCI surgery (pre-dosing baseline). N=5-6 allodynic rats received a single IP or oral administration of test compounds or vehicle. Two hours post-dosing, 50% paw withdrawal threshold was determined again by blinded testers using von Frey filaments. The 50% withdrawal threshold prior to CCI surgery, pre-dosing (10 days post-surgery), and 2 hours post-dosing are plotted.
For selected compounds multi-day studies were perfumed with pre-determined schedules for dosing and withdrawal threshold assessments.

[7] = target: T3, catalytic domain of phosphodiesterase 4B enzyme cloned from human brain (Homo sapiens, UniProt Q07343); experiment: PDE4 inhibition assay (PDELight); type: biochemical; conditions: for IC50: 5 uM cAMP, read-out: PDE 4 Inhibition (IC50 in μM)
T3 construct: the catalytic domain of phosphodiesterase 4B enzyme; purchased Scottish Biomedical
Protocol: In a 96-well plate, the catalytic domain of phosphodiesterase 4B enzyme (40 mU/well) cloned from human brain (Scottish Biomedical) was combined with 5 uM cAMP substrate (Sigma). […] Using a PDELight® kit (Cambrex), the amount of AMP produced in the reaction from the hydrolysis of cAMP was quantified using PDELight AMP Detection Reagent which converts the AMP directly to ATP. The assay uses luciferase, which catalyses the formation of light from the newly formed ATP and luciferin. […] IC50 calculations were plotted using a nonlinear regression curve fit.

[8] = system: phosphorylated c-Jun (serine-73); experiment: Phosphorylated c-JUN (A-beta), SH-SY5Y; type: cell-based; conditions: Homo sapiens, Amyloid Beta peptide 30 uM, 3 hours, read-out: p-cJun Abeta SH-SY5Y (EC50 in μM)
Protocol: In 96-well plates either human SH-SY5Y neuroblastoma cells at 2.5×10^4 cells/well or E18 rat neuronal cells at 1.5×10^4 cells/well were seeded. […] Supernatant was discarded and cells were fixed with 4% paraformaldehyde (100 ul/well) for 20 minutes. FACE cell based ELISA assay (Active Motif) was performed specific for quantifying phosphorlyated c-Jun (serine-73).

[9] = target: T4, recombinant full length human JNK2 enzyme (Homo sapiens, UniProt P45984); experiment: JNK 2 inhibition assay (ATP depletion, luciferase); type: biochemical
T4 construct: recombinant full length human JNK2 or JNK3 enzyme; purchased Upstate; host or cells: Sf21 cells
Protocol: In a 96-well plate, recombinant full length human JNK2 or JNK3 enzyme (40 ng) expressed in Sf21 cells (Upstate) was incubated with the substrate ATF2 (3 uM) for 1 hour in the presence of 10 uM ATP. […] IC50 calculations were plotted using a nonlinear regression curve fit.

[10] = Oral pharmacokinetic evaluation; type: in vivo, rat; conditions: Sprague-Dawley rats; for half-life / AUC(0-t) / Cmax: male, rat, plasma; for half-life: Sprague-Dawley, po, 15 mg/kg; for AUC(0-t): read-out: Oral PK AUClast; for Cmax: read-out: Oral PK Cmax
Protocol: Three male Sprague-Dawley rats were dosed orally via gavage with 15 mg/kg of test compound. Serial blood samples were collected from the jugular vein at 5, 15, and 30 min, 1, 3, and 6 hours post dosing. Samples were processed for plasma via centrifugation and plasma samples were stored frozen prior to analysis via a sensitive and specific HPLC/MS/MS method. PK parameters were calculated using WinNonLin (Pharsight).

[11] = read-out: MCP-1 BV-2 (EC50 in μM)
[12] = read-out: TNF-a BV-2 (EC50 in μM)
[13] = 10 uM ATP, ATF2 substrate, read-out: JNK 2 Inhibition (IC50 in μM)
[14] = 15 mg/kg oral gavage, read-out: Oral PK T½ (converted)
[15] = read-out: IC50 value based upon a JNK 2 inhibition assay (range given)

T2 sequence (Q9Y233 1-779 isoform Q9Y233-1): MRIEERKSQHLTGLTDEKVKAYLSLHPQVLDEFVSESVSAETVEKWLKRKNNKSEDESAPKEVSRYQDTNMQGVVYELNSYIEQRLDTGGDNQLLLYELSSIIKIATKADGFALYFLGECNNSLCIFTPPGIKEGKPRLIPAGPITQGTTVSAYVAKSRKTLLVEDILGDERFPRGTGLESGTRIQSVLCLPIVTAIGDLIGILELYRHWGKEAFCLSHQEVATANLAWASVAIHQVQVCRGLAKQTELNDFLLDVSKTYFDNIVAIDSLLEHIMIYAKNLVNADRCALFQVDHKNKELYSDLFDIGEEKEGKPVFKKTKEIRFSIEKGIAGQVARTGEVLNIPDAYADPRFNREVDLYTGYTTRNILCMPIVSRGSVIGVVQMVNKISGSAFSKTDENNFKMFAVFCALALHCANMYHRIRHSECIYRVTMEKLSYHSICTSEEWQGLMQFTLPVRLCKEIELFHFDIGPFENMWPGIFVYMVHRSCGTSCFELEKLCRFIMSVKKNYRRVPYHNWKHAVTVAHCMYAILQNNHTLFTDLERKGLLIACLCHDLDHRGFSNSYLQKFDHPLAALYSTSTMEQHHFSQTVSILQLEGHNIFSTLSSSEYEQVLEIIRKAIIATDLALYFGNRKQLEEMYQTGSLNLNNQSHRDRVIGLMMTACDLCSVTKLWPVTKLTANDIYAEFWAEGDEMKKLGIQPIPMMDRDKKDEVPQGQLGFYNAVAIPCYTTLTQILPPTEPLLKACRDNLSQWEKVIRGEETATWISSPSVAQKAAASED
T3 sequence (Q07343 330-659 limits assumed): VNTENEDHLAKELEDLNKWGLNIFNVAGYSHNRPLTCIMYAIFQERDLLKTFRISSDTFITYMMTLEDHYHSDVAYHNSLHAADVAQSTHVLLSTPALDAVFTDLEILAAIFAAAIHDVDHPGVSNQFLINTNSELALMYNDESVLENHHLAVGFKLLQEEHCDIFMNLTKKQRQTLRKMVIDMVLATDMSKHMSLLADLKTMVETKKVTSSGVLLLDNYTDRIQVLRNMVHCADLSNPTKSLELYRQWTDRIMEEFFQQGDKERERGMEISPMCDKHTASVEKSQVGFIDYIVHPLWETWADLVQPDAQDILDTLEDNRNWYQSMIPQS
T4 sequence (P45984 whole entry): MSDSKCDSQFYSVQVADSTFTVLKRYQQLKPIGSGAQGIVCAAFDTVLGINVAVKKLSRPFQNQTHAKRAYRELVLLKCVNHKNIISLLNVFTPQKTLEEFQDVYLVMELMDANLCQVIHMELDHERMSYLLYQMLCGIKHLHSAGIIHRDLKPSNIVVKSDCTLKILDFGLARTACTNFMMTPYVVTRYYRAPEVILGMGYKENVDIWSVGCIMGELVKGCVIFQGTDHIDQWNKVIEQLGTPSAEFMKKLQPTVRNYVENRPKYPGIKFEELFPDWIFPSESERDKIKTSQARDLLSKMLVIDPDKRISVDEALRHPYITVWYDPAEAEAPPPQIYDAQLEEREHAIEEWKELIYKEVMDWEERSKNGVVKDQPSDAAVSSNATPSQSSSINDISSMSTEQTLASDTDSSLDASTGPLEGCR
T1 sequence (P53779 whole entry): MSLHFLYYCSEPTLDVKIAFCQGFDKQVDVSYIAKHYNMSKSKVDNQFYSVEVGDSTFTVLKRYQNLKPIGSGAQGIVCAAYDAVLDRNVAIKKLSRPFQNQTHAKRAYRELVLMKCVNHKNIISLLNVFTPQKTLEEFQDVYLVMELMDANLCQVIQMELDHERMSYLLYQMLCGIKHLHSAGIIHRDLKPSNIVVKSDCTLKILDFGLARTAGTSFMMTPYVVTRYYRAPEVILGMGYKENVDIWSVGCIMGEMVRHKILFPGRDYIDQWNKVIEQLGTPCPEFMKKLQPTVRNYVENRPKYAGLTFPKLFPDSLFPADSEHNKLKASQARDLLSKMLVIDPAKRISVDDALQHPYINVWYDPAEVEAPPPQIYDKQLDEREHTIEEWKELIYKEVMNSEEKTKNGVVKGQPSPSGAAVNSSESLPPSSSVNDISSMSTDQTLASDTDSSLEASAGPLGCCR

CC(C)CNc1nccc(-c2c(C(C)C)nn3ccccc23)n1 [AV1158, N-isobutyl-4-(2-isopropylpyrazolo[1,5-a]pyridin-3-yl)pyrimidin-2-amine]
IC50 [1]: 1.2 µM
JNK-3 inhibition (in words) [1]: particularly effective
EC50 [2]: > 30 µM
dual inhibition (phosphodiesterase and JNK) [3]: effective dual inhibitors
EC50 [4, 11]: 1.2 µM
EC50 [4, 12]: 1 µM
inhibiting glial cell activation (TNF-α and/or MCP-1) [4]: Particularly effective
IC50 [5]: 8.4 µM
PDE-10 inhibition (in words) [5]: particularly effective
IP CCI efficacy (Change in grams) [6]: 0.93 grams
PDE-4 inhibition (in words) [7]: particularly effective
IC50 [7]: 3.4 µM
EC50 [8]: > 30 µM

Cc1cccc2c(-c3ccnc(NC(C)C)n3)c(C(C)C)nn12 [AV1168, N-isopropyl-4-(2-isopropyl-7-methylpyrazolo[1,5-a]pyridin-3-yl)pyrimidin-2-amine]
IC50 [1]: 2.2 µM
dual inhibition (phosphodiesterase and JNK) [3]: effective dual inhibitors
IC50 [5]: 59 µM
IP CCI efficacy (Change in grams) [6]: 0 grams
PDE-4 inhibition (in words) [7]: particularly effective
IC50 [7]: 2.9 µM
IC50 [9, 13]: 8.1 µM

CC(C)Cc1nn2ccccc2c1-c1ccnc(NC2CCCC2)n1 [AV1178, N-cyclopentyl-4-(2-isobutylpyrazolo[1,5-a]pyridin-3-yl)pyrimidin-2-amine]
IC50 [1]: 3.6 µM
dual inhibition (phosphodiesterase and JNK) [3]: effective dual inhibitors
IC50 [5]: > 100 µM
PDE-4 inhibition (in words) [7]: particularly effective
IC50 [7]: 5.4 µM
IC50 [9, 13]: 2.8 µM
EC50 [8]: > 30 µM

Brc1cccc(-c2nn3ccccc3c2-c2ccnc(NC3CCCC3)n2)c1 [AV1195, 4-(2-(3-bromophenyl)pyrazolo[1,5-a]pyridin-3-yl)-N-cyclopentylpyrimidin-2-amine]
IC50 [1]: 0.05 µM
JNK-3 inhibition (in words) [1]: particularly effective
dual inhibition (phosphodiesterase and JNK) [3]: effective dual inhibitors
EC50 [4, 11]: 0.7 µM
EC50 [4, 12]: 0.03 µM
inhibiting glial cell activation (TNF-α and/or MCP-1) [4]: Particularly effective
IC50 [5]: > 100 µM
half life following oral dosing (in words) ([10]; oral): particularly prolonged half lives
half-life [10, 14]: 1.2 h
AUC(0-t) ([10]; 15 mg/kg oral gavage): 581 ng·h/mL
Cmax ([10]; 15 mg/kg oral gavage): 211 ng/mL
IP CCI efficacy (Change in grams) [6]: [0] grams
PDE-4 inhibition (in words) [7]: particularly effective
IC50 [7]: 4.9 µM
IC50 [9, 13]: 0.09 µM
IC50 [9, 15]: 0.01 to 2 µM

c1ccn2nc(C3CC3)c(-c3ccnc(NC4CCCC4)n3)c2c1 [AV1198, N-cyclopentyl-4-(2-cyclopropylpyrazolo[1,5-a]pyridin-3-yl)pyrimidin-2-amine]
IC50 [1]: 2.8 µM
JNK-3 inhibition (in words) [1]: particularly effective
dual inhibition (phosphodiesterase and JNK) [3]: effective dual inhibitors
EC50 [4, 11]: 0.3 µM
EC50 [4, 12]: 3.3 µM
inhibiting glial cell activation (TNF-α and/or MCP-1) [4]: Particularly effective
IC50 [5]: 6.8 µM
PDE-10 inhibition (in words) [5]: particularly effective
half life following oral dosing (in words) ([10]; oral): particularly prolonged half lives
half-life [10, 14]: 3.6 h
half-life ([10]; oral, read-out: half life following oral dosing): > 3 h
AUC(0-t) ([10]; 15 mg/kg oral gavage): 79 ng·h/mL
Cmax ([10]; 15 mg/kg oral gavage): 30 ng/mL
IP CCI efficacy (Change in grams) [6]: [0] grams
PDE-4 inhibition (in words) [7]: particularly effective
IC50 [7]: 3.4 µM
IC50 [9, 13]: 1.4 µM
IC50 [9, 15]: 0.01 to 2 µM
